In EP3800188A1, “SUBSTITUTED PYRAZOLOPYRIMIDINES AS IRAK4 INHIBITORS” (Bayer AG, priority 2019, dated 2021):

How the values were obtained:
human IRAK4 = molecular target: T1, human IRAK4 (Homo sapiens, UniProt Q9NWZ3); experiment: Human IRAK4 kinase activity inhibition assay (IRAK4 TR-FRET assay); format: biochemical; settings: 1 mM ATP, GST-human IRAK4, average or median values
T1 construct: GST (N); made in house; host or cells: baculovirus-infected Hi5 (BTI-TN-5B1-4) insect cells
T1 sequence (Q9NWZ3 1-460): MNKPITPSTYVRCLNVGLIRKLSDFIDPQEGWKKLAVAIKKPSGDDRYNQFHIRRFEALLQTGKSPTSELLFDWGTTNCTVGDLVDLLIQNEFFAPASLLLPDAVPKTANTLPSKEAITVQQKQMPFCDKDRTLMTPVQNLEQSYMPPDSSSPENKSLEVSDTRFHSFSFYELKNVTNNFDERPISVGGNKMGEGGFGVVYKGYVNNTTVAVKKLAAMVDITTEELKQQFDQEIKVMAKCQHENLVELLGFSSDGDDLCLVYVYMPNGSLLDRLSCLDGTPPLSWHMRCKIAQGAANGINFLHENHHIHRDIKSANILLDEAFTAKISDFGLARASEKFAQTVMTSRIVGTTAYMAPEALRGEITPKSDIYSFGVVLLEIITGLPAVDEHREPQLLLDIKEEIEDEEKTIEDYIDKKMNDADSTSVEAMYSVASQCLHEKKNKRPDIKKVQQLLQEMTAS
Summary of the method: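 GST-IRAK4 from insect cells (about 0.2 nM, linear range) was preincubated 15 min with compound (11 concentrations, 20 µM–0.073 nM) in HEPES pH 7.5 with MgCl2 and DTT before kinase reaction on a biotinylated peptide. Phosphopeptide was detected by TR-FRET (Eu anti-mouse-IgG/anti-phosphoserine/streptavidin-XL665, 1 h at 22°C) as the 665/620 nm ratio, normalized to no-compound and no-enzyme controls.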

canine Irak4 = molecular target: T2, canine Irak4 (Canis lupus familiaris, UniProt A0A8I3S726); experiment: Canine Irak4 kinase assay (TR-FRET); format: biochemical; settings: 1 mM ATP, His6-tagged canine Irak4, average or median values
T2 sequence (A0A8I3S726 2-459): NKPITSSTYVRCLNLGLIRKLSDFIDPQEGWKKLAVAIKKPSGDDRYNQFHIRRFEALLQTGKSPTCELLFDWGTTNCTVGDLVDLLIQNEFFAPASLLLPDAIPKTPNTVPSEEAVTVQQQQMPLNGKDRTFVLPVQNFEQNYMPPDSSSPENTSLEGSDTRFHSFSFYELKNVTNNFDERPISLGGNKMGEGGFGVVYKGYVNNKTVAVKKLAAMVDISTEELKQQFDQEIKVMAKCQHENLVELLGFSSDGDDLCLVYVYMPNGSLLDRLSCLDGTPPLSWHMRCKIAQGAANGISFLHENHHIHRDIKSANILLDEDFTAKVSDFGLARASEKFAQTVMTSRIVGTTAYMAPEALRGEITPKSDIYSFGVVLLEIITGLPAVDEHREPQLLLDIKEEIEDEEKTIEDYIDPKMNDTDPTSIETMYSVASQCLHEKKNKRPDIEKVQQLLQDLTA

[1] = Metabolic stability in human liver microsomes; settings: 1 µM compound; for CLblood, human microsomes: hepatic in vivo blood clearance calculated with well stirred liver model, '(stable)' given beside < 0.01; for Fmax, human microsomes: maximal oral bioavailability calculated with well stirred liver model, 0.5 mg/mL protein, '(stable)' given beside 100
human PBMCs = experiment: In vitro LPS-induced cytokine (TNF-α) production in human PBMCs; format: cell-based; settings: PBMC, 0.1 µg/mL LPS, 24 hours, 30 min preincubation, read-out: activity (LPS-induced TNF-α secretion in human PBMCs)
Description: The effect of the compounds of the general formula (I) on induced cytokine production in human PBMCs was examined.
Cytokine production was induced here by LPS, a TLR4 ligand, which leads to activation of the IRAK4-mediated signal path.
The human PBMCs were obtained from anti-coagulated human whole blood. To this end, 15 mL of Ficoll-Paque (Biochrom, Cat. No. L6115) were initially charged in Leucosep tubes and 20 mL of human blood were added. After centrifugation of the blood at 800 g for 15 min at room temperature, the plasma including the platelets was removed and discarded. The PBMCs were transferred into centrifugation tubes and made up with PBS (phosphate-buffered saline) (Gibco, Cat. No. 14190). The cell suspension was centrifuged at room temperature at 250 g for 10 min and the supernatant was discarded. The PBMCs were resuspended in complete medium (RPMI 1640, without L-glutamine (PAA, Cat. No. E15-039), 10% FCS; 50 U/mL penicillin, 50 µg/mL streptomycin (PAA, Cat. No. P11-010) and 1% L-glutamine (Sigma, Cat. No. G7513)). The assay was also carried out in complete medium. The PBMCs were sown in 96-well plates at a cell density of 2.5x10^5 cells/well. The compounds according to the invention were subjected to serial dilution in a constant volume of 100% DMSO and used in the assay at 8 different concentrations in the range from 10 µM to 3 nM such that the final DMSO concentration was 0.4% DMSO. Prior to the actual stimulation, the cells were then preincubated therewith for 30 min. To induce cytokine secretion, the cells were stimulated with 0.1 µg/mL LPS (Sigma, Escherichia coli 0128:B12, Cat. No. L2887) for 24 hours. Cell viability was determined using the CellTiter-Glo luminescent assay (Promega, Cat. No. G7571 (G755/G756A)) in accordance with the manufacturer's instructions. The amount of secreted TNF-α in the cell culture supernatant was determined using the Human ProInflammatory 9-Plex Tissue Culture Kit (MSD, Cat. No. K15007B) in accordance with the instructions of the manufacturer. By way of example, Example Compounds II-2, I-40, I-56, I-61 have activity ≤ 500 nM.

[2] = Metabolic stability in dog liver microsomes; format: in vitro ADME; settings: 1 µM compound; for CLblood, dog microsomes: hepatic in vivo blood clearance calculated with well stirred liver model, '(stable)' given beside < 0.01; for Fmax, dog microsomes: maximal oral bioavailability calculated with well stirred liver model, 0.5 mg/mL protein, '(stable)' given beside 100
Description: From the half-life the intrinsic clearances were calculated.

Row | IC50 (human IRAK4) [nM] | IC50 (canine Irak4) [nM] | CLblood, human microsomes [1] [mL/min/kg] | Fmax, human microsomes [1] [%] | CLblood, dog microsomes [2] | Fmax, dog microsomes [2] | SMILES | IC50 (human PBMCs) [nM]
1 | 8.27 | 8.54 | 2.33 | 89 |  |  | CC(C)(O)C1CCN(c2nc(NC3CCS(=O)(=O)C3)nc3c2cnn3-c2cccc(C(F)(F)F)c2)CC1 (single isomer, unassigned; (+)) [Example I-4-2, (+)-2-(1-{6-[(1,1-dioxidotetrahydrothiophen-3-yl)amino]-1-[3-(trifluoromethyl)phenyl]-1H-pyrazolo[3,4-d]pyrimidin-4-yl}piperidin-4-yl)propan-2-ol] | 
2 | 3.04 | 3.19 |  |  |  |  | O=C1C[C@H](Nc2nc(N3CC(N4CCOCC4)C3)c3cnn(-c4cccc(C(F)(F)F)c4)c3n2)CN1 [Example I-1-1, (4S)-4-({4-[3-(morpholin-4-yl)azetidin-1-yl]-1-[3-(trifluoromethyl)phenyl]-1H-pyrazolo-[3,4-d]pyrimidin-6-yl}amino)pyrrolidin-2-one] | 
3 | 7.19 | 8.7 | 5.33 | 76 |  |  | CC(C)(O)C1CCN(c2nc(N[C@@H]3CNC(=O)C3)nc3c2cnn3-c2cccc(C(F)(F)F)c2)CC1 [Example I-2-1, (4S)-4-({4-[4-(2-hydroxypropan-2-yl)piperidin-1-yl]-1-[3-(trifluoromethyl)phenyl]-1H-pyrazolo[3,4-d]pyrimidin-6-yl}amino)pyrrolidin-2-one] | 
4 | 10.5 | 9.27 | 1.5 | 93 |  |  | CC(C)(O)C1CCN(c2nc(NC3CCS(=O)(=O)CC3)nc3c2cnn3-c2cccc(C(F)(F)F)c2)CC1 [Example I-5, 2-(1-{6-[(1,1-dioxidotetrahydro-2H-thiopyran-4-yl)amino]-1-[3-(trifluoromethyl)phenyl]-1H-pyrazolo[3,4-d]pyrimidin-4-yl)piperidin-4-yl)propan-2-ol] | 
5 | 13.1 | 26.4 | 8.33 | 62 |  |  | CN1CC[C@H](Nc2nc(N3CCC(C(C)(C)O)CC3)c3cnn(-c4cccc(C(F)(F)F)c4)c3n2)C1 [Example I-13-1, 2-[1-(6-{[(3S)-1-methylpyrrolidin-3-yl]amino}-1-[3-(trifluoromethyl)phenyl]-1H-pyrazolo[3,4-d]pyrimidin-4-yl)piperidin-4-yl]propan-2-ol] | 
6 | 12 | 12.7 | 1.2 | 95 |  |  | CC(C)(O)C1CCN(c2nc(NC3CN(S(C)(=O)=O)C3)nc3c2cnn3-c2cccc(C(F)(F)F)c2)CC1 [Example I-14, 2-[1-(6-{[1-(methylsulfonyl)azetidin-3-yl]amino}-1-[3-(trifluoromethyl)phenyl]-1H-pyrazolo[3,4-d]pyrimidin-4-yl)piperidin-4-yl]propan-2-ol] | 
7 | 8.82 | 5.41 | 2.83 | 87 |  |  | O=S1(=O)CCC(Nc2nc(N3CC(N4CCOCC4)C3)c3cnn(-c4cccc(C(F)(F)F)c4)c3n2)CC1 [Example I-23, N-(1,1-dioxidotetrahydro-2H-thiopyran-4-yl)-4-[3-(morpholin-4-yl)azetidin-1-yl]-1-[3-(trifluoromethyl)phenyl]-1H-pyrazolo[3,4-d]pyrimidin-6-amine] | 
8 | 3.68 |  | 1.2 | 95 |  |  | C[C@H]1C[C@H](Nc2nc(N3CCC(C(C)(C)O)CC3)c3cnn(-c4cccc(C(F)(F)F)c4)c3n2)CN1 [Example I-40, 2-[1-(6-{[(3S,5S)-5-methylpyrrolidin-3-yl]amino}-1-[3-(trifluoromethyl)phenyl]-1H-pyrazolo[3,4-d]pyrimidin-4-yl)piperidin-4-yl]propan-2-ol] | ≤ 500
9 | 1.82 | 1.98 | 0.67 | 97 |  |  | CC(C)(O)C1CCN(c2nc(N[C@H]3C[C@](C)(N)C3)nc3c2cnn3-c2cccc(C(F)(F)F)c2)CC1 [Example I-57, 2-(1-{6-[(trans-3-amino-3-methylcyclobutyl)amino]-1-[3-(trifluoromethyl)phenyl]-1H-pyrazolo[3,4-d]pyrimidin-4-yl}piperidin-4-yl)propan-2-ol] | 
10 | 3.28 |  | 5.17 | 77 |  |  | CC1(O)CCN(C2CN(c3nc(N[C@H]4C[C@H](S(C)(=O)=O)C4)nc4c3cnn4-c3cccc(C(F)(F)F)c3)C2)CC1 [Example I-61, 4-methyl-1-[1-(6-{[trans-3-(methylsulfonyl)cyclobutyl]amino}-1-[3-(trifluoromethyl)-phenyl]-1H-pyrazolo[3,4-d]pyrimidin-4-yl)azetidin-3-yl]piperidin-4-ol] | ≤ 500
11 | 2.98 |  | 4.17 | 81 | 0.42 L/h/kg | 80% | CC(C)(O)C1CCN(c2nc(NC3CN(S(C)(=O)=O)C3)nc3c2cnn3-c2cccc(C(F)F)c2)CC1 [II-12, 2-[1-(1-[3-(difluoromethyl)phenyl]-6-{[1-(methylsulfonyl)azetidin-3-yl]amino}-1H-pyrazolo[3,4-d]pyrimidin-4-yl)piperidin-4-yl]propan-2-ol] | 
12 | 8.06 | 6.52 | 3 | 86 |  |  | CC(C)(O)C1CCN(c2nc(N[C@@H]3CNC(=O)C3)nc3c2cnn3-c2cccc(OC(F)F)c2)CC1 [IV-1, (4S)-4-({1-[3-(difluoromethoxy)phenyl]-4-[4-(2-hydroxypropan-2-yl)piperidin-1-yl]-1H-pyrazolo[3,4-d]pyrimidin-6-yl}amino)pyrrolidin-2-one] | 
13 | 3.42 |  | 5.33 | 76 | < 0.01 (stable) L/h/kg | 100 (stable) % | CC(C)(O)C1CCN(c2nc(N[C@H]3C[C@H](S(C)(=O)=O)C3)nc3c2cnn3-c2cccc(OC(F)F)c2)CC1 [IV-2, 2-[1-(1-[3-(difluoromethoxy)phenyl]-6-{[trans-3-(methylsulfonyl)cyclobutyl]amino}-1H-pyrazolo[3,4-d]pyrimidin-4-yl)piperidin-4-yl]propan-2-ol] | 
